Values after ≈ are worked out from the molar mass of the structure shown. Where two headings read alike, the source gives them in different places.
What was measured:
[1] = Permeability in Caco-2 cells; assay type: in vitro ADME; details: human
Method: Permeability of RXC004 was assessed in MDR1-MDCKII (Netherlands Cancer Institute) and Caco-2 cells (Merck Life Sciences). RXC004 (10 μmol/L) was added to either apical or basolateral chamber for 2 hours at 37°C, then an aliquot from the opposite side of the monolayer was removed and quantified by LC/MS-MS. Apparent permeability (Papp) was calculated according to standard practice ([20]).

[2] = Lipophilicity (logD7.4); assay type: physicochemical
Method: Lipophilicity (logD7.4): A total of 30 μL of a 20 mmol/L stock solution of RXC004 was added to a vial containing 1.5 mL of pH7.4 phosphate buffer saturated octanol and 1.5 mL of octanol-saturated pH7.4 phosphate buffer, shaken and centrifuged to ensure phase separation. logD7.4 was calculated as the logarithm of the ratio of the concentration of RXC004 (measured by LC-UV in octanol vs. buffer phase).

[3] = test system: cell lines with RNF43 LoF mutations and RSPO3 fusions; test: Wnt-responsive gene expression (qPCR); assay type: cell-based, human; details: 10 nmol/L, 3 days
Text: (§1) The expression of nine potential Wnt-responsive genes was screened across cell lines by treatment with RXC004 (10 nmol/L) or DMSO (0.1%) for 3 days. RNA was extracted (Aurum RNA isolation kit, Bio-Rad #372-6820) and gene expression assessed by Taqman qPCR relative to appropriate housekeeping genes on the Bio-Rad CFX real-time system.
(§2) For concentration–response effects on gene expression, Single-Shot Cell Lysis kit (Bio-Rad #172-5080) was used for RNA extraction, data were normalized to DMSO-treated controls, and IC50 values determined. For cell-cycle analysis, the cancer cell line panel was treated with RXC004 (100 nmol/L) or DMSO (0.1%) for 3 days. Cell-cycle profiles were determined by staining with propidium iodide (Thermo Fisher Scientific #P3566) and phospho-Ser10-Histone-H3 (AlexaFluor-647, BioLegend #650806), and quantified using an Agilent Novocyte-3000 flow cytometer. For in vitro growth curve analysis, HPAF-II and SNU-1411 cells were seeded in 96-well plates at 2,000 cells/well and imaged on the IncuCyte (Sartorius) at 10× magnification with 4 fields of view per well. Total cell object count over time was calculated using the Adherent Cell-by-Cell analysis module.

[4] = test system: HCT116 cells; test: Wnt-responsive gene expression (qPCR); assay type: cell-based, human
Text: as §1, §2

[5] = test system: WiDR cells; test: Wnt-responsive gene expression (qPCR); assay type: cell-based, human
Text: as §1, §2

[6] = test system: B16F10 tumors; test: B16F10/C57BL/6 syngeneic model; assay type: in vivo, mouse (C57BL/6)
Method: B16F10/C57BL/6 syngeneic model was performed at Axis Bioservices. Mouse B16F10 cells (2 × 10^5) were subcutaneously implanted in flanks of the immunocompetent male C57BL/6 mice. Treatment was initiated at day 3, once tumors were palpable with RXC004 being dosed orally as indicated. Anti-programmed cell death protein-1 (PD-1; RMP1-14, BioXcell) or isotype control was dosed at 100 μg per dose intraperitoneal, twice weekly. Anti-CTLA-4 antibody (BioXCell BP0131) or isotype control was dosed intraperitoneally every 3 days at 100 μg per dose. Separate experiments were performed for tumor volume and flow cytometry analysis. Tumor volume was assessed in each animal and/or group until prespecified termination conditions and/or study endpoint were reached. For flow cytometry, tumors were resected at day 19, 2 hours after final dose, weighed and digested into a single-cell suspension using collagenase (Liberase, Roche) and DNAase and passed through a strainer prior to flow cytometry analysis on FACS Canto II apparatus using Flow JO software. Single and fluorescence minus one stains were used for compensation setup and gating controls respectively. A myeloid analysis panel included Zombie viability dye (BioLegend #423106), CD11b (BioLegend #101228), CD45, Ly6C, and Ly6G (BD Biosciences #563891, #562727, #551460). Myeloid myeloid-derived suppressor cells (MDSC) were gated as CD45^+CD11b^+ Ly6G-Ly6C^high and polymorphonuclear MDSCs were gated as CD45^+CD11b^+ Ly6G^+Ly6C^med ([21]). For gene expression analysis, tumors were snap frozen, total RNA was extracted and mRNA expression levels for various genes analyzed using the Nanostring nCounter Mouse PanCancer IO360 Codeset.

[7] = Aqueous solubility; assay type: physicochemical; details: pH 7.4 buffer, 25°C
Method: Following filtration under positive pressure, compound concentration in solution was assessed by high-performance liquid chromatography coupled to an ultraviolet detector (LC-UV).

[8] = pKa by fast UV (spectrometric) technique; assay type: physicochemical; details: 25°C; for pKa: methanol-water mixture
Method: pKas were determined using the fast UV (spectrometric) technique. Samples were titrated under methanol-water mixture between pH2.0 and pH12.0 at 30–15 μmol/L at 25°C. The ionic strength was 0.192 mol/L (KCl). Aqueous pKas were determined per Yasuda-Shedlovsky ([17]).

[9] = test system: HCT116 cells; test: In vitro glucose uptake; assay type: cell-based, human; details: HCT116, RXC004 100 nmol/L, 48 hours
Method: (§3) SNU-1411, HPAF-II, and HCT116 cells were treated in vitro for 48 hours with RXC004 (100 nmol/L), Latrunculin A (Abcam #ab144290; 500 nmol/L), or DMSO prior to analysis using the Glucose Uptake Glo Assay Kit (Promega #J1341). The ATPlite assay was used to control for cell viability, confirming RXC004 has no effect on proliferation at this 48 hours timepoint.

[10] = test system: SNU-1411 cells; test: In vitro glucose uptake; assay type: cell-based, human; details: Homo sapiens; SNU-1411, RXC004 100 nmol/L, 48 hours
Method: as §3

[11] = test system: HPAF-II cells; test: In vitro glucose uptake; assay type: cell-based, human; details: Homo sapiens, RXC004 100 nmol/L, 48 hours
Method: as §3

Cc1c(-c2ccnc(C(F)(F)F)c2)ncn1CC(=O)Nc1ccc(-c2cnccn2)cn1 [RXC004, 2-[5-methyl-4-[2-(trifluoromethyl)-4-pyridyl]imidazol-1-yl]-N-(5-pyrazin-2-yl-2-pyridyl)acetamide]
Papp A→B at 2 h, 10 μmol/L ([1]; apical to basolateral, read-out: Caco-2 PappA-B): 23.6 ×10⁻⁶ cm/s | Papp B→A at 2 h, 10 μmol/L ([1]; basolateral to apical, read-out: Caco-2 PappB-A): 21.8 ×10⁻⁶ cm/s | logD ([2]; octanol/phosphate buffer, pH 7.4, pH 7.4, octanol/phosphate buffer, read-out: Measured log D7.4): 2.4 | Measured log D7.4 ([2]; pH 7.4, octanol/phosphate buffer): 2.44 | mRNA expression of Wnt pathway targets Axin2, RNF43, c-Myc, CD44, MMP7 [3]: downregulated mRNA expression of Wnt pathway targets | mucin mRNA [3]: marked increase in mucin mRNA | Wnt pathway target expression ([4]; HCT116, 10 nmol/L, 3 days): Minimal effects | IC50 ([4]; Homo sapiens, HCT-116, HCT116, read-out: IC50, c-Myc mRNA expression): > 10 µM | IC50 ([5]; Homo sapiens, WiDr, read-out: IC50, c-Myc mRNA expression): > 10 µM | Wnt pathway target expression ([5]; WiDR, 10 nmol/L, 3 days): Minimal effects | survival hazard ratio ([6]; 5 mg/kg QD versus vehicle, P <0.0001, Log-rank test): 0.27 | survival ([6]; 5 mg/kg once daily): significantly increased survival | tumor expression of CXCL9 ([6]; 5 mg/kg once daily): increased tumor expression of the chemokine CXCL9 | tumor-associated CD45+ immune cells (Nanostring) ([6]; 5 mg/kg once daily): significantly increased the overall tumor-associated CD45^+ immune cells | circulating MDSC ([6]; 5 mg/kg once daily, day 19): concomitant increase in circulating MDSC | tumor-associated MDSCs ([6]; 5 mg/kg once daily, day 19): significantly reduced tumor-associated MDSCs | tumor volume / tumor growth ([6]; RXC004 5 mg/kg once daily, anti-PD-1 100 μg per dose twice a week): significant tumor growth inhibition | solubility at 24 h [7]: 56 µM (≈ 24.6 µg/mL) | pKa (most basic) [8]: 3.84 | pKa ([8]; read-out: pKa (most acidic)): 11.2 | pKa ([8]; read-out: pKa (most basic)): 3.8 | glucose uptake [9]: had no effect | inhibition at 0.1 µM [10]: > 50% | inhibition at 0.1 µM [11]: > 50%

Reference: PMC10010340, “The Wnt Pathway Inhibitor RXC004 Blocks Tumor Growth and Reverses Immune Evasion in Wnt Ligand–dependent Cancer Models” (Cancer Research Communications, 2022)
